Results on seven molecules are retold here after patent publication US20110086759A1, “CHEMICAL COMPOUNDS” (SYNGENTA CROP PROTECTION, INC., priority 2007, published 2011).

Common to all, as to format: in vivo
For assay [1], the system named is Echinochloa crus-galli (ECHCG). Description: Pre-emergence biological efficacy, glasshouse pot test. The settings on record: 312 h. In a few lines: (§1)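 One day after sowing in standard soil, pots were sprayed with compound in acetone/water (50:50) with 0.5% Tween 20, at 1000 or 250 g/ha. Plants grew at 24/16° C day/night, 14 h light, 65% humidity. Damage was scored after 13 days (0 = none, 100 = total).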

The test system of assay [2] is Alopecurus myosuroides (ALOMY). The description is as above. The settings on record: 312 h. In a few lines: as §1
In assay [3] the test system is Amaranthus retoflexus (AMARE). The assay is described as above. The settings on record: Amaranthus retroflexus, 312 h. Summed up:
as §1

Assay [4] concerns Solanum nigrum (SOLNI). The description is as above. Conditions: 312 h. Summed up:
as §1

Assay [5] concerns Setaria faberi (SETFA). The description is as above. The settings on record: 312 h. Summed up: as §1
In assay [6] the test system is Ipomea hederaceae (IPOHE). Described as above. Conditions: Ipomoea hederacea, 312 h. Summed up:
as §1

In assay [7] the test system is Echinochloa crus-galli (ECHCG). In words: Post-emergence biological efficacy, glasshouse pot test. The settings on record: 312 h. In a few lines:
(§2)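 Pot-grown weeds were sprayed 8 days after sowing with test compound in acetone/water (50:50) with 0.5% Tween 20 at 1000 or 250 g/ha. Glasshouse at 24/16° C day/night, 14 h light, 65% humidity. Damage scored 0-100 (100 = total damage) after 13 days.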

The subject of assay [8] is Alopecurus myosuroides (ALOMY). Described as above. The settings on record: 312 h. In a few lines: as §2
In assay [9] the test system is Amaranthus retoflexus (AMARE). The assay is described as above. Conditions: Amaranthus retroflexus, 312 h. In a few lines:
as §2

For assay [10], the system named is Solanum nigrum (SOLNI). The assay is described as above. Conditions: 312 h. In a few lines: as §2
Assay [11] concerns Setaria faberi (SETFA). Described as above. The settings on record: 312 h. In a few lines: as §2
Assay [12] concerns Ipomea hederaceae (IPOHE). Described as above. Conditions: Ipomoea hederacea, 312 h. In a few lines: as §2
[13] abbreviates: pre-emergence, 1,000 g/ha, evaluated after 13 days (100=total damage; 0=no damage), read-out: Percentage damage ECHCG.
Where [14] appears, read: pre-emergence, 1,000 g/ha, evaluated after 13 days (100=total damage; 0=no damage), read-out: Percentage damage ALOMY.
[15] abbreviates: pre-emergence, 1,000 g/ha, evaluated after 13 days (100=total damage; 0=no damage), read-out: Percentage damage AMARE.
The mark [16] stands for this setting: pre-emergence, 1,000 g/ha, evaluated after 13 days (100=total damage; 0=no damage), read-out: Percentage damage SOLNI.
Where [17] appears, read: pre-emergence, 1,000 g/ha, evaluated after 13 days (100=total damage; 0=no damage), read-out: Percentage damage SETFA.
Where [18] appears, read: pre-emergence, 1,000 g/ha, evaluated after 13 days (100=total damage; 0=no damage), read-out: Percentage damage IPOHE.
Setting [19] is: post-emergence, 1,000 g/ha, evaluated after 13 days (100=total damage; 0=no damage), read-out: Percentage damage caused to weed species, ECHCG.
Setting [20] is: post-emergence, 1,000 g/ha, evaluated after 13 days (100=total damage; 0=no damage), read-out: Percentage damage caused to weed species, ALOMY.
Setting [21] is: post-emergence, 1,000 g/ha, evaluated after 13 days (100=total damage; 0=no damage), read-out: Percentage damage caused to weed species, AMARE.
The mark [22] stands for this setting: post-emergence, 1,000 g/ha, evaluated after 13 days (100=total damage; 0=no damage), read-out: Percentage damage caused to weed species, SOLNI.
Where [23] appears, read: post-emergence, 1,000 g/ha, evaluated after 13 days (100=total damage; 0=no damage), read-out: Percentage damage caused to weed species, SETFA.
Where [24] appears, read: post-emergence, 1,000 g/ha, evaluated after 13 days (100=total damage; 0=no damage), read-out: Percentage damage caused to weed species, IPOHE.
Where [25] appears, read: pre-emergence, rate 1,000 g/ha, evaluated after 13 days (100=total damage to plant; 0=no damage), read-out: Percentage damage caused to weed species, ECHCG.
The mark [26] stands for this setting: pre-emergence, rate 1,000 g/ha, evaluated after 13 days (100=total damage to plant; 0=no damage), read-out: Percentage damage caused to weed species, ALOMY.
The mark [27] stands for this setting: pre-emergence, rate 1,000 g/ha, evaluated after 13 days (100=total damage to plant; 0=no damage), read-out: Percentage damage caused to weed species, AMARE.
Where [28] appears, read: pre-emergence, rate 1,000 g/ha, evaluated after 13 days (100=total damage to plant; 0=no damage), read-out: Percentage damage caused to weed species, SOLNI.
The mark [29] stands for this setting: pre-emergence, rate 1,000 g/ha, evaluated after 13 days (100=total damage to plant; 0=no damage), read-out: Percentage damage caused to weed species, SETFA.
[30] abbreviates: pre-emergence, rate 1,000 g/ha, evaluated after 13 days (100=total damage to plant; 0=no damage), read-out: Percentage damage caused to weed species, IPOHE.
[31] abbreviates: Rate 1,000 g/ha, post-emergence spray, evaluated after 13 days (100=total damage to plant; 0=no damage to plant), read-out: Percentage damage caused to weed species, post-emergence, ECHCG.
The mark [32] stands for this setting: Rate 1,000 g/ha, post-emergence spray, evaluated after 13 days (100=total damage to plant; 0=no damage to plant), read-out: Percentage damage caused to weed species, post-emergence, ALOMY.
[33] abbreviates: Rate 1,000 g/ha, post-emergence spray, evaluated after 13 days (100=total damage to plant; 0=no damage to plant), read-out: Percentage damage caused to weed species, post-emergence, AMARE.
Setting [34] is: Rate 1,000 g/ha, post-emergence spray, evaluated after 13 days (100=total damage to plant; 0=no damage to plant), read-out: Percentage damage caused to weed species, post-emergence, SOLNI.
Setting [35] is: Rate 1,000 g/ha, post-emergence spray, evaluated after 13 days (100=total damage to plant; 0=no damage to plant), read-out: Percentage damage caused to weed species, post-emergence, SETFA.
Where [36] appears, read: Rate 1,000 g/ha, post-emergence spray, evaluated after 13 days (100=total damage to plant; 0=no damage to plant), read-out: Percentage damage caused to weed species, post-emergence, IPOHE.

With `COC(=O)c1nc(C2CC2)nc(N[C@H](C)[C@@H](O)c2ccccc2)c1Cl` [4-270 (erythro), 5-Chloro-2-cyclopropyl-4-(erythro-2-hydroxy-1-methyl-2-phenyl-ethylamino)-6-methoxycarbonyl-pyrimidine], the pest or weed control at 1000 g/ha in [1] (setting [13]) stood at 30%; in [2] (setting [14]), 30%; in [3] (setting [15]), 80%; in the assay with Solanum nigrum (SOLNI) [4] (setting [16]), 80%; in the assay on Setaria faberi (SETFA) [5] (setting [17]), 30%; in assay [6] (setting [18]), 100%. Further, the pest or weed control at 1000 g/ha in assay [7] (setting [19]) came out at 60%; in [8] (setting [20]), 30%; in assay [9] (setting [21]), 100%; in the assay with Solanum nigrum (SOLNI) [10] (setting [22]) it was 80%; in the assay with Setaria faberi (SETFA) [11] (setting [23]) it was 80%; in assay [12] (setting [24]) it was 100%.
In the case of `COC(=O)c1nc(C2CC2)nc(NCc2ccc(C)cc2)c1Cl` [Compound 4-73, 5-Chloro-2-cyclopropyl-6-methoxycarbonyl-4-(4-methylphenyl-methylamino)-pyrimidine], the pest or weed control at 1000 g/ha was found to be 30% in [1] (setting [13]); 10% in assay [2] (setting [14]); 70% in assay [3] (setting [15]); 60% with Solanum nigrum (SOLNI) [4] (setting [16]); 20% with Setaria faberi (SETFA) [5] (setting [17]); 80% in assay [6] (setting [18]). The pest or weed control at 1000 g/ha in assay [7] (setting [19]) is 60%; in [8] (setting [20]), 20%; in assay [9] (setting [21]), 100%; in the assay on Solanum nigrum (SOLNI) [10] (setting [22]), 100%; in the assay with Setaria faberi (SETFA) [11] (setting [23]), 80%; in assay [12] (setting [24]), 100%.
Regarding `COC(=O)c1nc(-c2ccc(Cl)s2)nc(NC2CC2)c1Cl` [Compound 262-30, 5-Chloro-2-(5-chloro-thiophen-2-yl)-4-cyclopropylamino-6-methoxycarbonyl-pyrimidine], the pest or weed control at 1000 g/ha (in [1] (setting [25]); in assay [2] (setting [26]); in [3] (setting [27]); with Solanum nigrum (SOLNI) [4] (setting [28]); in the assay with Setaria faberi (SETFA) [5] (setting [29]); in assay [6] (setting [30])) was 0% each time. Further, the pest or weed control at 1000 g/ha in assay [7] (setting [31]) was 10%; in assay [8] (setting [32]) it was 0%; in assay [9] (setting [33]), 80%; in the assay with Solanum nigrum (SOLNI) [10] (setting [34]), 90%; with Setaria faberi (SETFA) [11] (setting [35]) it was 10%; in assay [12] (setting [36]), 50%.
In the case of `COC(=O)c1nc(C2CC2)nc(NCCN2CCOCC2)c1Cl` [Compound 4-220, 5-Chloro-2-cyclopropyl-6-methoxycarbonyl-4-[2-(morpholin-4-yl)ethylamino]-pyrimidine], the pest or weed control at 1000 g/ha in assay [1] (setting [13]) turned out to be 30%; in assay [2] (setting [14]), 0%; in [3] (setting [15]), 60%; with Solanum nigrum (SOLNI) [4] (setting [16]), 40%; in the assay with Setaria faberi (SETFA) [5] (setting [17]) it was 0%; in assay [6] (setting [18]), 50%. Moreover, the pest or weed control at 1000 g/ha in assay [7] (setting [19]) is 30%; in assay [8] (setting [20]), 20%; in [9] (setting [21]), 100%; in the assay with Solanum nigrum (SOLNI) [10] (setting [22]), 90%; in the assay on Setaria faberi (SETFA) [11] (setting [23]), 40%; in assay [12] (setting [24]), 100%.
In the case of `COC(=O)c1nc(C2CC2)nc(NCc2ccncc2)c1Cl` [Compound 4-160, 5-Chloro-2-cyclopropyl-6-methoxycarbonyl-4-(pyrid-4-yl-methyl-amino)pyrimidine], the pest or weed control at 1000 g/ha worked out at 60% in assay [1] (setting [13]); 20% in assay [2] (setting [14]); 70% in [3] (setting [15]); 90% in the assay on Solanum nigrum (SOLNI) [4] (setting [16]); 50% with Setaria faberi (SETFA) [5] (setting [17]); 100% in assay [6] (setting [18]). The pest or weed control at 1000 g/ha in [7] (setting [19]) came out at 70%; in [8] (setting [20]), 40%; in [9] (setting [21]), 100%; in the assay on Solanum nigrum (SOLNI) [10] (setting [22]), 80%; in the assay on Setaria faberi (SETFA) [11] (setting [23]), 80%; in assay [12] (setting [24]), 90%.
On to `COC(=O)c1nc(Cl)nc(NCc2ccc(C)o2)c1Cl` [Compound 207-50, 2,5-Dichloro-6-methoxycarbonyl-4-(5-methylfuran-2-ylmethylamino)-pyrimidine], for which the pest or weed control at 1000 g/ha was 0% in assay [1] (setting [25]); 0% in assay [2] (setting [26]); 60% in assay [3] (setting [27]); 80% in the assay with Solanum nigrum (SOLNI) [4] (setting [28]); 0% with Setaria faberi (SETFA) [5] (setting [29]); 40% in assay [6] (setting [30]). Moreover, the pest or weed control at 1000 g/ha in assay [7] (setting [31]) is 0%; in [8] (setting [32]) it was 0%; in assay [9] (setting [33]) it was 40%; in the assay with Solanum nigrum (SOLNI) [10] (setting [34]), 80%; in the assay with Setaria faberi (SETFA) [11] (setting [35]), 0%; in assay [12] (setting [36]), 70%.
As for `COC(=O)c1nc(C2CC2)nc(N(C)Cc2cccc(F)c2)c1Cl` [Compound 5-65, 5-Chloro-2-cyclopropyl-4-[N-(3-fluorophenylmethyl)-N-methyl-amino]-6-methoxy-carbonylpyrimidine], the pest or weed control at 1000 g/ha in assay [1] (setting [25]) came out at 10%; in assay [2] (setting [26]) it was 20%; in assay [3] (setting [27]), 100%; in the assay on Solanum nigrum (SOLNI) [4] (setting [28]), 90%; in the assay with Setaria faberi (SETFA) [5] (setting [29]) it was 20%; in [6] (setting [30]), 100%. Besides, the pest or weed control at 1000 g/ha in assay [7] (setting [31]) was found to be 70%; in assay [8] (setting [32]) it was 30%; in assay [9] (setting [33]), 100%; in the assay on Solanum nigrum (SOLNI) [10] (setting [34]), 100%; in the assay on Setaria faberi (SETFA) [11] (setting [35]) it was 80%; in [12] (setting [36]), 90%.
